Patent publication US20130039897A1, “COMPOSITIONS AND METHODS FOR REGULATING NEUTROPHIL MOVEMENT AND NEUTROPHIL NUMBERS IN A BODY REGION” (The Texas A&M University System, priority 2011, published 2013)

System: human neutrophils
Assay: Insall chamber assay with DPPIV enzyme inhibitors, with or without rDPPIV
Format: cell-based
Conditions: FIG. 5; for chemorepulsion of neutrophils away from the source of rDPPIV: inhibitor added with rDPPIV, compared to rDPPIV alone; for attraction or repulsion of human neutrophils: inhibitor alone
Description: Cover slips were then washed twice with PBS, and neutrophils at approximately 5×10^6 cells/ml were allowed to adhere to the coverslip for 15 minutes at 37° C. Two concentric depressions and the separating bridge in an Insall chamber slide were filled with 2% (w/v) BSA-RPMI. The media was removed from the coverslips, which were then placed face down on the chamber. Media was then removed from the outer chamber and was replaced by rDPPIV alone, DPPIV inhibitor alone (Diprotin A, Enzo Life Sciences or DPPI 1 c hydrochloride, Tocris Bioscience (Bristol, UK)), rDPPIV plus DPPIV inhibitor (all in 2% (w/v) BSA-RPMI), or 2% (w/v) BSA-RPMI. Cells located on the bridge between the square depressions were then filmed using the methods of Ochsner, S. A., et al., Disrupted function of tumor necrosis factor-alpha-stimulated gene 6 blocks cumulus cell-oocyte complex expansion. Endocrinology, 2003. 144(10): p. 4376-84, incorporated in material part by reference herein, using a 10× objective for 1 hour at 37° C. in a humidified 5% CO2 incubator. The displacement of at least 10 randomly-chosen cells per experiment was measured over periods of 10 minutes. Cell tracking and track analysis were performed according to the methods of Phillips, J. E. and R. H. Gomer, A secreted protein is an endogenous chemorepellant in Dictyostelium discoideum. Proc Natl Acad Sci U S A, 2012. 109(27): p. 10990 - 10996, incorporated in material part by reference herein, with the exception that videos of an hour in length were processed into 10 minute segments to yield a TIFF stack of 47 images for analysis (with 13-second intervals between images).
DPPIV enzyme activity has been implicated in chemotaxis of hematopoietic stem cells through cleavage of SDF-1. To determine if DPPIV enzyme activity is responsible for neutrophil chemorepulsion, two enzyme inhibitors of DPPIV, Diprotin A and DPPI 1 c HCl, were used in Insall chamber assays along with DPPIV.

Question: Which “chemorepulsion of neutrophils away from the source of rDPPIV” value does the source give for `CC[C@H](C)[C@H](N)C(=O)N1CCC[C@H]1C(=O)N[C@H](C(=O)O)[C@@H](C)CC` [Diprotin A] here?
Answer: significantly reduced

Question: What about the “attraction or repulsion of human neutrophils” value of the same compound?
Answer: caused no attraction or repulsion

Question: How did the “chemorepulsion of neutrophils away from the source of rDPPIV” value turn out when `Cl.N#C[C@@H]1CC[C@H](C#N)N1C(=O)CNC1(CO)CCCC1` [DPPI 1 c HCl, DPPI 1 c hydrochloride] was run?
Answer: significantly reduced

Question: And the “attraction or repulsion of human neutrophils” value?
Answer: caused no attraction or repulsion
